In US3974140A, “Ureidoacetamido-penicillins” (Bayer Aktiengesellschaft, priority 1970, dated 1976):
Several values for one entry are separate records, joined by “and”; a condition that tells them apart may be missing. Equal entries are not always repeated.

Tests used:
Assay in all cases: MIC, liquid medium test tube series dilution test
Staph. aureus 133 = assay type: cell-based, Staphylococcus aureus; details: Staph. aureus 133, 24 hours, 37°C
Procedure, shortened: (§1)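 In this in vitro test, growth inhibition is judged by absence of turbidity across a dilution series in complete nutrient broth. Readings are made after 24 hours at 37°C, with values given in units/ml.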

Staph. aureus 1777 E = assay type: cell-based, Staphylococcus aureus; details: 24 hours, 37°C
Procedure, shortened: as §1

Psdm. aerug. Bonn = assay type: cell-based, Pseudomonas aerug.; details: 24 hours, 37°C
Procedure, shortened: as §1

Psdm. aerug. Walter = assay type: cell-based, Pseudomonas aerug.; details: 24 hours, 37°C
Procedure, shortened: as §1

[1] = system: Streptoc. faec. ATCC 9790; assay type: cell-based; details: Strep. faec. (Enterococcus) ATCC 9790, 24 hours, 37°C
Procedure, shortened: as §1

E. coli A 261 = assay type: cell-based; details: E. coli A 261, 24 hours, 37°C
Procedure, shortened: as §1

Klebsiella K 10 = assay type: cell-based; details: Klebsiella K 10, 24 hours, 37°C
Procedure, shortened: as §1

E. coli 14 = assay type: cell-based; details: E. coli 14, 24 hours, 37°C
Procedure, shortened: as §1

E. coli C 165 = assay type: cell-based; details: E. coli C 165, 24 hours, 37°C
Procedure, shortened: as §1

Klebsiella 63 = assay type: cell-based; details: Klebsiella 63, 24 hours, 37°C
Procedure, shortened: as §1

E. coli 183/58 = assay type: cell-based; details: E. coli 183/58, 24 hours, 37°C
Procedure, shortened: as §1

Proteus vulg. 3400 = assay type: cell-based, Proteus vulgaris; details: Proteus vulg. 3400, 24 hours, 37°C
Procedure, shortened: as §1

Proteus vulg. 1017 = assay type: cell-based, Proteus vulgaris; details: Proteus vulg. 1017, 24 hours, 37°C
Procedure, shortened: as §1

CN(C(=O)C=Cc1cccc([N+](=O)[O-])c1)C(=O)N[C@@H](C(=O)N[C@@H]1C(=O)N2[C@@H]1SC(C)(C)[C@@H]2C(=O)O)c1ccccc1 [Example 131, Sodium D(-)-α-(3-m-nitrocinnamoyl-3-methyl-ureido)-benzylpenicillin]
MIC (Staph. aureus 133): < 0.8 units/ml
MIC (Staph. aureus 1777 E): 20-100 units/ml
MIC (Psdm. aerug. Bonn): 0.8-4 units/ml
MIC (Psdm. aerug. Walter): 0.8-4 units/ml
MIC [1]: 4-20 units/ml
MIC (E. coli A 261): 20-100 units/ml
MIC (Klebsiella K 10): 0.8-4 units/ml
MIC (E. coli 14): 0.8 units/ml
MIC (E. coli C 165): < 0.8 units/ml
MIC (Klebsiella 63): 4-20 units/ml
MIC (E. coli 183/58): < 0.8 units/ml
MIC (Proteus vulg. 3400): 0.8-4 units/ml
MIC (Proteus vulg. 1017): 0.8-4 units/ml

Cc1ccc(C(NC(=O)N2CCNC2=O)C(=O)N[C@@H]2C(=O)N3[C@@H]2SC(C)(C)[C@@H]3C(=O)O)cc1 (stereo partly drawn) [Example 45, Sodium α-[(imidazolidin-2-on-1-yl)-carbonylamino]-p-methylbenzylpenicillin]
MIC (Staph. aureus 133): < 0,78 units/ml
MIC (Staph. aureus 1777 E): 400 units/ml
MIC (Psdm. aerug. Bonn): 25 units/ml
MIC (Psdm. aerug. Walter): 12,5 units/ml
MIC [1]: 50 units/ml
MIC (E. coli A 261): > 400 units/ml
MIC (Klebsiella K 10): 100 units/ml
MIC (E. coli 14): 6,25 units/ml
MIC (E. coli C 165): 25 units/ml
MIC (Klebsiella 63): 100 units/ml
MIC (E. coli 183/58): 6,25 units/ml
MIC (Proteus vulg. 3400): 100 units/ml
MIC (Proteus vulg. 1017): 100 units/ml

CC(C)OC(=O)N(C)C(=O)N[C@@H](C(=O)N[C@@H]1C(=O)N2[C@@H]1SC(C)(C)[C@@H]2C(=O)O)c1ccccc1 [Example 11 C, Sodium D(-)-α-(3-isopropoxycarbonyl-3-methyl-ureido)-benzyl-penicillin]
MIC (Staph. aureus 133): 1.6 units/ml
MIC (Staph. aureus 1777 E): 400 units/ml
MIC (Psdm. aerug. Bonn; listed as 11 C): 400 units/ml
MIC (Psdm. aerug. Bonn; listed as (A) of Example 11): 50 units/ml
MIC (Psdm. aerug. Walter; listed as 11 C): 200 units/ml
MIC (Psdm. aerug. Walter; listed as (A) of Example 11): 100 units/ml
MIC [1]: 200 units/ml
MIC (E. coli A 261): > 400 units/ml
MIC (Klebsiella K 10; listed as 11 C): 50 units/ml
MIC (E. coli 14; listed as 11 C): 6.3 units/ml
MIC (E. coli 14; listed as (A) of Example 11): 6.25 units/ml
MIC (E. coli C 165; listed as 11 C): 50 units/ml
MIC (E. coli C 165; listed as (A) of Example 11): 50 units/ml
MIC (Klebsiella 63; listed as 11 C): 100 units/ml
MIC (E. coli 183/58; listed as 11 C): 12.5 units/ml
MIC (E. coli 183/58; listed as (A) of Example 11): 12.5 units/ml
MIC (Proteus vulg. 3400; listed as 11 C): 100 units/ml
MIC (Proteus vulg. 1017; listed as 11 C): 100 units/ml

CN(C(=O)N[C@@H](C(=O)N[C@@H]1C(=O)N2[C@@H]1SC(C)(C)[C@@H]2C(=O)O)c1ccccc1)C(=O)c1ccccc1Br [Example 128, Sodium D(-)-α-(3-[2-bromobenzoyl]-3-methyl-ureido)-benzyl penicillin]
MIC (Staph. aureus 133): < 0.78 units/ml
MIC (Staph. aureus 1777 E): 12.5 units/ml
MIC (Psdm. aerug. Bonn): 6.25 units/ml
MIC (Psdm. aerug. Walter): 12.5 units/ml
MIC [1]: 50 units/ml
MIC (E. coli A 261): 50 units/ml
MIC (Klebsiella K 10): 6.25 units/ml
MIC (E. coli 14): 0.78 units/ml
MIC (E. coli C 165): 1.56 units/ml
MIC (Klebsiella 63): 6.25 units/ml
MIC (E. coli 183/58): < 0.78 units/ml
MIC (Proteus vulg. 3400): 6.25 units/ml
MIC (Proteus vulg. 1017): 1.56 units/ml

CCN(CC)C(=O)N(C)C(=O)N[C@@H](C(=O)N[C@@H]1C(=O)N2[C@@H]1SC(C)(C)[C@@H]2C(=O)O)c1ccccc1 [Example 126, Sodium D(-)-α-(3-diethylaminocarbonyl-3-methyl-ureido)-benzylpenicillin]
MIC (Staph. aureus 133): 1.56 units/ml
MIC (Staph. aureus 1777 E): 100 units/ml
MIC (Psdm. aerug. Bonn): 100 units/ml
MIC (Psdm. aerug. Walter): 200 units/ml
MIC [1]: 200 units/ml
MIC (E. coli A 261): > 400 units/ml
MIC (Klebsiella K 10): 100 units/ml
MIC (E. coli 14): 12.5 units/ml
MIC (E. coli C 165): 50 units/ml
MIC (Klebsiella 63): 200 units/ml
MIC (E. coli 183/58): 50 units/ml
MIC (Proteus vulg. 3400): 100 units/ml
MIC (Proteus vulg. 1017): 100 units/ml

CNC(=O)N(C)C(=O)N[C@@H](C(=O)N[C@@H]1C(=O)N2[C@@H]1SC(C)(C)[C@@H]2C(=O)O)c1ccccc1 [Example 110, Sodium D(-)-α-(3-methylaminocarbonyl-3-methyl-ureido)-benzylpenicillin]
MIC (Staph. aureus 133): 0.8 units/ml
MIC (Staph. aureus 1777 E): 20-100 units/ml
MIC (Psdm. aerug. Bonn): 20-100 units/ml
MIC (Psdm. aerug. Walter): 20-100 units/ml
MIC [1]: 4-20 units/ml
MIC (E. coli A 261): 100-500 units/ml
MIC (Klebsiella K 10): 4-20 units/ml
MIC (E. coli 14): 0.8-4 units/ml
MIC (E. coli C 165): 4-20 units/ml
MIC (Klebsiella 63): 4-20 units/ml
MIC (E. coli 183/58): 4-20 units/ml
MIC (Proteus vulg. 3400): 4-20 units/ml
MIC (Proteus vulg. 1017): 4-20 units/ml

Cc1ccc(C(NC(=O)N2CCNC2=O)C(=O)N[C@@H]2C(=O)N3[C@@H]2SC(C)(C)[C@@H]3C(=O)O)cc1 (stereo partly drawn) [Example 46, Sodium α-[(imidazolidin-2-on-1-yl)-carbonylamino]-p-methylbenzylpenicillin]
MIC (Staph. aureus 133): 1,56 units/ml
MIC (Staph. aureus 1777 E): 200 units/ml
MIC (Psdm. aerug. Bonn): 25 units/ml
MIC (Psdm. aerug. Walter): 25 units/ml
MIC [1]: 50 units/ml
MIC (E. coli A 261): > 400 units/ml
MIC (Klebsiella K 10): 100 units/ml
MIC (E. coli 14): 6,25 units/ml
MIC (E. coli C 165): 50 units/ml
MIC (Klebsiella 63): 50 units/ml
MIC (E. coli 183/58): 12,5 units/ml
MIC (Proteus vulg. 3400): 50 units/ml
MIC (Proteus vulg. 1017): 25 units/ml

CN(C(=O)N[C@@H](C(=O)N[C@@H]1C(=O)N2[C@@H]1SC(C)(C)[C@@H]2C(=O)O)c1ccccc1)C(=O)C1CCCCC1 [Example 62]
MIC (Staph. aureus 133): < 0.78 units/ml
MIC (Staph. aureus 1777 E): 400 units/ml
MIC (Psdm. aerug. Bonn): 12 units/ml and 12.5 units/ml
MIC (Psdm. aerug. Walter): 25 units/ml
MIC [1]: 100 units/ml
MIC (E. coli A 261): 400 units/ml
MIC (Klebsiella K 10): 100 units/ml
MIC (E. coli 14): 1.56 units/ml
MIC (E. coli C 165): 6.25 units/ml
MIC (Klebsiella 63): 100 units/ml
MIC (E. coli 183/58): 3.12 units/ml
MIC (Proteus vulg. 3400): 6.25 units/ml
MIC (Proteus vulg. 1017): 6.25 units/ml

CN(C(=O)N[C@@H](C(=O)N[C@@H]1C(=O)N2[C@@H]1SC(C)(C)[C@@H]2C(=O)O)c1ccccc1)C(=O)N1CCCCC1 [Example 123, Sodium D(-)-α-(3-[1-piperidyl]-carbonyl-3-methyl-ureido)-benzylpenicillin]
MIC (Staph. aureus 133): < 0.8 units/ml
MIC (Staph. aureus 1777 E): 25 units/ml
MIC (Psdm. aerug. Bonn): 50 units/ml
MIC (Psdm. aerug. Walter): 100 units/ml
MIC [1]: 200 units/ml
MIC (E. coli A 261): > 400 units/ml
MIC (Klebsiella K 10): 50 units/ml
MIC (E. coli 14): 3.12 units/ml
MIC (E. coli C 165): 25 units/ml
MIC (Klebsiella 63): 100 units/ml
MIC (E. coli 183/58): 12.5 units/ml
MIC (Proteus vulg. 3400): 100 units/ml
MIC (Proteus vulg. 1017): 50 units/ml

CC(=O)N(C)C(=O)NC(C(=O)N[C@@H]1C(=O)N2[C@@H]1SC(C)(C)[C@@H]2C(=O)O)c1ccc(C)cc1 (stereo partly drawn) [Example 118, Sodium α-(3-acetyl-3-methyl-ureido)-4-methylbenzylpenicillin]
MIC (Staph. aureus 133): 1.6 units/ml
MIC (Staph. aureus 1777 E): 100 units/ml
MIC (Psdm. aerug. Bonn): 200 units/ml
MIC (Psdm. aerug. Walter): 200 units/ml
MIC [1]: 50 units/ml
MIC (E. coli A 261): > 400 units/ml
MIC (Klebsiella K 10): 100 units/ml
MIC (E. coli 14): 12.5 units/ml
MIC (E. coli C 165): 50 units/ml
MIC (Klebsiella 63): 200 units/ml
MIC (E. coli 183/58): 200 units/ml
MIC (Proteus vulg. 3400): 200 units/ml
MIC (Proteus vulg. 1017): 100 units/ml

CN(C(=O)Cc1ccc([N+](=O)[O-])cc1)C(=O)N[C@@H](C(=O)N[C@@H]1C(=O)N2[C@@H]1SC(C)(C)[C@@H]2C(=O)O)c1ccccc1 [Example 132, Sodium D(-)-α-(3-[4-nitrophenacetyl]-3-methyl-ureido)-benzylpenicillin]
MIC (Staph. aureus 133): < 0.8 units/ml
MIC (Staph. aureus 1777 E): 20-100 units/ml
MIC (Psdm. aerug. Bonn): 4-20 units/ml
MIC (Psdm. aerug. Walter): 4-20 units/ml
MIC [1]: 4-20 units/ml
MIC (E. coli A 261): > 400 units/ml
MIC (Klebsiella K 10): 4-20 units/ml
MIC (E. coli 14): 0.8 units/ml
MIC (E. coli C 165): 0.8-4 units/ml
MIC (Klebsiella 63): 20-100 units/ml
MIC (E. coli 183/58): < 0.8 units/ml
MIC (Proteus vulg. 3400): 0.8-4 units/ml
MIC (Proteus vulg. 1017): 4-20 units/ml
